{
  "source": "paper PMC4561207",
  "about": "(Child's nervous system : ChNS : official journal of the …, 2015)",
  "experiment": "Steady-state plasma pharmacokinetics, day 28 of course 1",
  "format": "in vivo, human",
  "data": [
    {"smiles": "COc1cc2c(Oc3ccc4[nH]c(C)cc4c3F)ncnc2cc1OCCCN1CCCC1", "note": "[cediranib, Cediranib]", "values": [
      {"measurement": "Css,min, median", "setting": "20mg/m^2 QD, day 28 pre-dose trough", "result": 11.5, "unit": "ng/mL"},
      {"measurement": "Css,max, median", "setting": "day 28, steady state, plasma", "result": 48.0, "unit": "ng/mL"},
      {"measurement": "Tmax", "setting": "human, plasma, oral", "result": "2 to 6", "unit": "h"},
      {"measurement": "AUC", "setting": "human, plasma, oral, 32 mg/m2, steady-state AUC0—tlast, 32mg/m^2 QD, n=2", "result": 892, "unit": "ng·h/mL"},
      {"measurement": "AUC", "setting": "human, plasma, oral, 32 mg/m2, steady-state AUC0—tlast, range, 32mg/m^2 QD, n=2", "result": "522 to 1260", "unit": "ng·h/mL"},
      {"measurement": "AUC", "setting": "human, plasma, oral, 40 mg/m2, steady-state AUC0—tlast, 40mg/m^2 QD, n=1", "result": 770, "unit": "ng·h/mL"}
    ]}
  ]
}
